Measured values published in US12697403B2, “Small molecules for dual function positron emission tomography (PET) and cell suicide switches” (THE TRUSTEES OF THE UNIVERSITY OF PENNSYLVANIA, priority 2017, dated 2026).

Legend:
F36V-FKBP = F36V-FKBP (Homo sapiens, UniProt P62942, F37V); conditions: cited from earlier work; for binding to mutant F36V-FKBP relative to the wild-type protein: F36V-FKBP versus wild-type FKBP
iCasp9 modified T cells = conditions: cited from earlier work
[1] = target: T1, iCasp9 in CAR T cells directed against desmoglein-3 (Homo sapiens, UniProt P55211+P62942, F37V); assay: Caspase activation / killing of iCasp9 CAR T cells by AP20187; type: cell-based; conditions: T cells transduced with CARs containing iCasp9; read-out: IC50 (fraction of dead cells)
T1 construct: expressed in transfected cells; host or cells: T cells
Source text: (§1) The iCasp9 system has been previously incorporated into CAR T cells directed against desmoglein-3 by others for studying pemphigus. T cells were transduced with two different CARs containing iCasp9 (iC9) and one CAR without iC9. The inducible caspase 9 was activated by treatment with varying concentrations of AP20187, a chemical inducer of dimerization which is an analog of AP1903 (FIG. 9). Of note is that the fraction of dead cells is less than 100% because not all of the cells were transduced. The IC50 of AP20187 is <0.1 nM. Nontransduced cells (NTD) and cells without iC9 were not killed by AP20187.

[2] = test system: iCasp9 in CAR T cells directed against desmoglein-3; assay: as above; type: cell-based; conditions: nontransduced cells (NTD) and cells without iC9
Source text: as §1

[3] = target: T2, MDA-MB231 cells transduced with DHFR-iCasp9 (Escherichia coli, UniProt P0ABQ4); conditions: for activation of the DHFR-iCasp9 suicide gene: MDA-MB231 cells transduced with DHFR-15-iCasp9 or DHFR-18-iCasp9
T2 sequence (P0ABQ4 1-159): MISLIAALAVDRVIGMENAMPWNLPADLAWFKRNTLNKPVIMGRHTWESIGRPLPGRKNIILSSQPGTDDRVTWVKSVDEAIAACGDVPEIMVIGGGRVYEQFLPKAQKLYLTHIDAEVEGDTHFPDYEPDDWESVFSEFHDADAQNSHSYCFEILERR
T2 sequence (P55211 135-416 partner): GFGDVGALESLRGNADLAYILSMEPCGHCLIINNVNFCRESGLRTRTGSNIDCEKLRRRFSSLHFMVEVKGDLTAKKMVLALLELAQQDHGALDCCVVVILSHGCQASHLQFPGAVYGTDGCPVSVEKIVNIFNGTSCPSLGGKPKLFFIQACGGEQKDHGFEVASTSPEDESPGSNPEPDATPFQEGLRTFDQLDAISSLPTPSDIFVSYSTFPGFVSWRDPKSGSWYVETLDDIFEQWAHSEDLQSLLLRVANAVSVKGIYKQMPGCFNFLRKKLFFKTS
Description: (§2) Procedure for DHFR-iCasp9 Cell Kill Assay with Bis-TMP Compounds: • Cell culture • Cell lines (MDA-MB231-luc transduced with DHFR-icasp9 with different linker lengths) were cultured in DMEM (Gibco) with 10% fetal bovine serum (Sigma), 100 U/mL penicillin and 100 ug/mL streptomycin (Invitrogen). • Incubation is done at 37° C. with 5% CO2 • Cell assay • Cells were plated on 96 well black plate, 3×10^4 cells/well. • The next day, cells were treated with varying concentrations of Bis-TMP compounds (Bis-TMP-#). • Cells were incubated for 24 hours and luciferin was added (120 ug/mL), after which bioluminescence was measured using Perkin Elmer Enspire Multi-mode Plate reader. Luminescence Assay with HCT116-L106P-tsLuc Cells Following Treatment with Shield-1 Compounds: • Day 1: Plate 50,000 cells/50 uL/well on 96 well black plate. • Day 2: • Add compounds (FP-Shield-1, control Shield-1 in 50 uL volume). • Incubate for 24 h at 37° C. with CO2. • Day 3: Add luciferin and read immediately.

[4] = test system: luciferase fused to the FKBP12 L106P destabilizing domain (L106P-tsLuc); assay: Luminescence assay with HCT116-L106P-tsLuc cells; type: cell-based; conditions: HCT116 cells expressing L106P-tsLuc, 3 nM to 10 uM
Description: as §2

[5] = test system: LID system (F36V-FKBP with degron) fused to CAR in T cells; conditions: preclinical studies; cited from earlier work

For CC[C@H](C(=O)N1CCCC[C@H]1C(=O)O[C@H](CCc1ccc(OC)c(OC)c1)c1cccc(OCC(=O)NCCNC(=O)COc2cccc([C@@H](CCc3ccc(OC)c(OC)c3)OC(=O)[C@@H]3CCCCN3C(=O)[C@@H](CC)c3cc(OC)c(OC)c(OC)c3)c2)c1)c1cc(OC)c(OC)c(OC)c1 [AP1903], the “binding to mutant F36V-FKBP relative to the wild-type protein” value (F36V-FKBP) is given as “greater than three orders of magnitude”, the “adverse events in humans” value (iCasp9 modified T cells; given to humans) is given as “without any reported serious adverse events” and the “modified T cells eliminated” value (iCasp9 modified T cells; patients with GVHD, single dose, within 30 min after administration) is given as “more than 90%”. The graft-versus-host disease outcome (iCasp9 modified T cells; patients with GVHD, single dose) was “terminated without abrogating immune reconstitution”.
In the case of CC[C@H](C(=O)N1CCCC[C@H]1C(=O)O[C@H](CCc1ccc(OC)c(OC)c1)c1cccc(OCC(=O)NCC(CNC(=O)COc2cccc([C@@H](CCc3ccc(OC)c(OC)c3)OC(=O)[C@@H]3CCCCN3C(=O)[C@@H](CC)c3cc(OC)c(OC)c(OC)c3)c2)CN(C)C)c1)c1cc(OC)c(OC)c(OC)c1 [AP20187], the IC50 [1] is reported as less than 0.1 nM and the “killing of control cells” value [2] is reported as “not killed”.
In the case of COc1cc(Cc2cnc(N)nc2N)cc(OC)c1OCCCCC(=O)NCCCOCCCNC(=O)CCCCOc1c(OC)cc(Cc2cnc(N)nc2N)cc1OC [Bis-TMP-21, N,N′-(oxybis(propane-3,1-diyl))bis(5-(4-((2,4-diaminopyrimidin-5-yl)methyl)-2,6-dimethoxyphenoxy)pentanamide)], the “activation of the DHFR-iCasp9 suicide gene” value [3] is reported as “potent activation of the DHFR-iCasp9 suicide gene at low nM concentrations”.
In the case of COc1cc(Cc2cnc(N)nc2N)cc(OC)c1OCCCCC(=O)NCCCOCCOCCOCCCNC(=O)CCCCOc1c(OC)cc(Cc2cnc(N)nc2N)cc1OC [Bis-TMP-27, N,N′-(((oxybis(ethane-2,1-diyl))bis(oxy))bis(propane-3,1-diyl))bis(5-(4-((2,4-diaminopyrimidin-5-yl)methyl)-2,6-dimethoxyphenoxy)pentanamide)], the “activation of the DHFR-iCasp9 suicide gene” value [3] is reported as “potent activation of the DHFR-iCasp9 suicide gene at low nM concentrations”, the cells killed ([3]; MDA-MB231 cells transduced with DHFR-18-iCasp9, 24 hours) is reported as ~ 70% and the IC50 ([3]; read-out: IC50 of cell killing, MDA-MB231 cells transduced with DHFR-18-iCasp9, 24 hours) is reported as roughly 5 nM.
In the case of CC[C@H](C(=O)N1CCCC[C@H]1C(=O)O[C@H](CCc1ccc(OC)c(OC)c1)c1cccc(OCCN2CCOCC2)c1)c1cc(OC)c(OC)c(OC)c1 [Shield-1], the “protein stabilization (luminescence)” value [4] is given as “equivalent protein stabilization when compared to the literature”, the “binding to mutant F36V-FKBP relative to the wild-type protein” value (F36V-FKBP) is given as “greater than three orders of magnitude” and the IC50 (F36V-FKBP; read-out: IC50 for the mutant protein F36V-FKBP) is given as 3.3 nM. The “IC50 for control of CAR expression” value [5] was “in the nM range”.
